These results are taken from patent publication EP4501942A1, “PEPTIDOMIMETICS WITH ANTIVIRAL ACTIVITY” (priority 2023, dated 2025).

Where two headings read alike, the source gives them in different places.

Data set [1] in a line: in vitro. The note with it: human.
Data set [2] deals with GFP-expressing recombinant vesicular stomatitis virus (VSV-GFP). Kind of data set: microbe, parasite or virus in culture. The note with it: A549-ACE2, 16 h. The data set is classed as cell-based.
The next data set addresses SARS-CoV-2 M^pro protein (Severe acute respiratory syndrome coronavirus 2, UniProt P0DTD1). The experiment in a line: biochemical. The note with it: for IC50: isolated SARS-CoV-2 M^pro, three separate experiments in duplicate, read-out: IC50, mean±SD; for inhibition at 10 µM: read-out: % of inhibition at 10 µM.
Data set [3] is described as follows: in vitro.
The next data set relates to SARS-CoV-2. Kind of data set: microbe, parasite or virus in culture. The note with it: Severe acute respiratory syndrome coronavirus 2, SARS-CoV-2, A549-ACE2 cells, MOI 0.005, 48 h; for EC50: read-out: EC50; for EC90: read-out: EC90. It is filed as cell-based.
Data set [4] can be described thus: Cytotoxicity MTT assay in uninfected A549-ACE2 cells. The data set is classed as cell-based. The note with it: human. As for the experimental part:
To evaluate the cytotoxicity profile of the compounds MTT assays were performed in A549-ACE2 cells. Uninfected cells were incubated with a range of compound concentrations (from 100 to 1 µM) for forty-eight hours, time at which the MTT substrate [3-(4,5-dimethylthiazol-2-yl)-2,5-diphenyltetrazolium bromide] was added and the formation of formazan precipitates was evaluated two hours later, using a colorimetric readout. Vehicle-treated (DMSO) cells were used as reference (100 %).

The term EC50 denotes the concentration at which the effect is half-maximal. One may read the EC90 as the concentration needed for an effect of 90%. Turning to `Cc1c(-c2ccc(-c3ccccc3F)cc2)nc2ccc(F)cc2c1C(=O)O` [Brequinar, reference compound], the CC50 in “in vitro [1]” is > 50 µM. Moreover, in data set [2], the EC50 is < 0.6 µM and the EC90 is < 0.6 µM.
Broadly, the IC50 is the concentration that inhibits the measured activity by half. With `CC(C)[C@H](NC(=O)OC(C)(C)C)C(=O)N1C[C@@H](C)[C@@]1(Cc1ccccc1)C(=O)N[C@H](C#N)C[C@@H]1CCNC1=O` [Example 6], the CC50 in “in vitro [1]” and in “in vitro [3]” was > 50 µM each time. Moreover, the EC50 was > 50 µM in data set [2] and 1 µM in the data set with SARS-CoV-2. The concentration for an effect of 90% (EC90) in data set [2] is > 50 µM; in the data set on SARS-CoV-2 it was 3 µM. For the same compound, the IC50 at SARS-CoV-2 M^pro protein amounted to 0.07 ± 0.01 µM. In addition, the CC50 at 48 h in data set [4] is > 100 µM.
For `C[C@@H]1CN(C(=O)[C@@H](NC(=O)OC(C)(C)C)C(C)(C)C)[C@]1(Cc1ccccc1)C(=O)N[C@H](C#N)C[C@@H]1CCNC1=O` [Example 14], the CC50 in “in vitro [1]” and in “in vitro [3]” was > 50 µM each time. Besides, the EC50 is > 50 µM in data set [2] and 1 µM with SARS-CoV-2. The 90% effect concentration (EC90) is > 50 µM in data set [2] and 3 µM with SARS-CoV-2. Also, the IC50 on SARS-CoV-2 M^pro protein stood at 0.3 ± 0.03 µM. In data set [4], the CC50 at 48 h was > 100 µM.
The term inhibition denotes the percentage by which the read-out fell short of the control. In the case of `CCCC[C@@H](C#N)NC(=O)[C@]1(CC(C)C)[C@H](C)CN1C(=O)[C@@H](NC(=O)NC(C)(C)C)C(C)(C)C` [Example 25, ^tBuNHCO-L-Tbg-(αS,β'R)-Azl-NH-[(1S)-1-cyano]pentane], the CC50 in “in vitro [1]” was > 50 µM. For the same compound, in data set [2], the concentration for a half-maximal effect (EC50) is > 50 µM and the EC90 was > 50 µM. In addition, the inhibition at 10 µM on SARS-CoV-2 M^pro protein worked out at 0%. Also, in “in vitro [3]”, the CC50 was > 50 µM.
`CC(C)C[C@@]1(C(=O)N[C@H](C=O)C[C@@H]2CCNC2=O)[C@H](C)CN1C(=O)[C@@H](NC(=O)OCc1ccccc1)C(C)C` [Example 27, Z-L-Val-(αS,β'R)-Azl-L-Ala(3S-2-oxopyrrolidin-3-yl)-H]: in the data set “in vitro [1]”, the CC50 was > 50 µM. Further, in data set [2], the EC50 was > 50 µM and the EC90 is > 50 µM. Further, the half-maximal inhibitory concentration (IC50) on SARS-CoV-2 M^pro protein was found to be 0.077 ± 0.02 µM. For the same compound, in the data set with SARS-CoV-2, the EC50 came to 1 µM and the EC90 was determined as 5 µM. For the same compound, the CC50 at 48 h in data set [4] is > 100 µM.
`C[C@@H]1CN(C(=O)[C@@H](NC(=O)OC(C)(C)C)C(C)(C)C)[C@]1(Cc1ccccc1)C(=O)N[C@H](C=O)C[C@@H]1CCNC1=O` [Example 29, Boc-L-Tbg-(αS,β'R')-Azf-L-Ala(3S-2-oxopyrrolidin-3-yl)-H]: the CC50 in the data set “in vitro [1]” and in “in vitro [3]” was > 50 µM each time. The results for the EC50 (in data set [2]; in the data set on SARS-CoV-2) were > 50 µM and 1 µM, respectively. The figures for the EC90 (in data set [2]; in the data set on SARS-CoV-2) were > 50 µM and 2 µM, respectively. At SARS-CoV-2 M^pro protein, the IC50 was 0.027 ± 0.006 µM. Further, the CC50 at 48 h in data set [4] is > 100 µM.
For the compound `CCCC[C@@H](C#N)NC(=O)[C@]1(CC(C)C)[C@H](C)CN1C(=O)[C@@H](NC(=O)OC(C)(C)C)C(C)(C)C` [Example 34, Boc-L-Tbg-(aS,β'R)-Azl-NH-[(1S)-1-cyano]pentane], the inhibition at 10 µM at SARS-CoV-2 M^pro protein was 0%. For the same compound, in the data set “in vitro [3]”, the CC50 was > 50 µM.
For `CC(C)[C@H](NC(=O)OC(C)(C)C)C(=O)N1C[C@@H](C)[C@@]1(CC1CCCCC1)C(=O)N[C@H](C#N)C[C@@H]1CCNC1=O` [Example 36], the CC50 in “in vitro [1]” and in the data set “in vitro [3]” was > 50 µM throughout. Also, the results for the EC50 (in data set [2]; with SARS-CoV-2) were > 50 µM and 2 µM, respectively. Further, the results for the 90% effect concentration (EC90) (in data set [2]; in the data set with SARS-CoV-2) were > 50 µM and 4 µM, respectively. Besides, the IC50 at SARS-CoV-2 M^pro protein amounted to 0.19 ± 0.01 µM. In addition, in data set [4], the CC50 at 48 h was > 100 µM.
Regarding `CC(C)(C)[C@@H]1NC(=O)O[C@@H]2CCC[C@H]2OC/C=C/C(F)(F)c2nc3ccccc3nc2O[C@@H]2C[C@@H](C(=O)N[C@]3(C(=O)NS(=O)(=O)C4(C)CC4)C[C@H]3C(F)F)N(C2)C1=O` [Glecaprevir, reference compound], the CC50 in “in vitro [3]” is > 50 µM.
